Results published in US20230147962A1, “FIBROBLAST ACTIVATION PROTEIN LIGANDS FOR TARGETED DELIVERY APPLICATIONS” (PHILOCHEM AG, priority 2020, published 2023).
*1 amine or outer side, *2 acyl side, *3 side chain or, on linkers, in order; H or OH if unused. Where a SMILES comes first, the peptide text is derived from it. The star is where a group is joined. Fluorescein(5-Mal) = O=C1OC2(c3ccc(O)cc3Oc3cc(O)ccc32)c2ccc(N3C(=O)CC(*)C3=O)cc21; X1 = N#C[C@@H]1CC(F)(F)CN1C(=O)CNC(=O)c1ccnc2c(N*)cccc12; Suc = O=C(CCC(=O)[*:2])[*:1]

Columns and labels:
HT-1080 Wild type = assay: Confocal microscopy on HT-1080 wild type; type: cell-based; conditions: negative control cells
Procedure: (§1) HT-1080.hFAP and HT-1080 cells were seeded into 4-well cover slip chamber plates at a density of 10^4 cells per well in DMEM medium (1 mL) supplemented with 10% FCS, AA and HEPES (10 mM) and allowed to grow for 24 hours under standard culture conditions. Hoechst 33342 nuclear dye was used to stain nuclear structures.
(§2) The culture medium was replaced with fresh medium containing conjugate 15 (100 nM). Randomly selected colonies imaged on a SP8 confocal microscope equipped with an AOBS device (Leica Microsystems).

SK-RC-52.hFAP = assay: Confocal microscopy on SK-RC-52.hFAP; type: cell-based; conditions: t=0 and 1 h
Procedure: as §1, with “SK-RC-52.hFAP” for “HT-1080.hFAP”, “SK-RC-52” for “HT-1080”, “RPMI” for “DMEM”
as §2

SK-RC-52 Wild type = assay: Confocal microscopy on SK-RC-52 wild type; type: cell-based; conditions: negative control cells
Procedure: as §1, with “SK-RC-52.hFAP” for “HT-1080.hFAP”, “SK-RC-52” for “HT-1080”, “RPMI” for “DMEM”
as §2

hFAP = target: T1, hFAP (Homo sapiens, UniProt Q12884); assay: Affinity measurement to human FAP by fluorescence polarization; type: binding; conditions: binder 10 nM, read-out: KD to hFAP
T1 construct: made in house; host or cells: CHO cells, transient gene expression, purified from supernatant
T1 sequence (Q12884 with tags, fused parts or gaps): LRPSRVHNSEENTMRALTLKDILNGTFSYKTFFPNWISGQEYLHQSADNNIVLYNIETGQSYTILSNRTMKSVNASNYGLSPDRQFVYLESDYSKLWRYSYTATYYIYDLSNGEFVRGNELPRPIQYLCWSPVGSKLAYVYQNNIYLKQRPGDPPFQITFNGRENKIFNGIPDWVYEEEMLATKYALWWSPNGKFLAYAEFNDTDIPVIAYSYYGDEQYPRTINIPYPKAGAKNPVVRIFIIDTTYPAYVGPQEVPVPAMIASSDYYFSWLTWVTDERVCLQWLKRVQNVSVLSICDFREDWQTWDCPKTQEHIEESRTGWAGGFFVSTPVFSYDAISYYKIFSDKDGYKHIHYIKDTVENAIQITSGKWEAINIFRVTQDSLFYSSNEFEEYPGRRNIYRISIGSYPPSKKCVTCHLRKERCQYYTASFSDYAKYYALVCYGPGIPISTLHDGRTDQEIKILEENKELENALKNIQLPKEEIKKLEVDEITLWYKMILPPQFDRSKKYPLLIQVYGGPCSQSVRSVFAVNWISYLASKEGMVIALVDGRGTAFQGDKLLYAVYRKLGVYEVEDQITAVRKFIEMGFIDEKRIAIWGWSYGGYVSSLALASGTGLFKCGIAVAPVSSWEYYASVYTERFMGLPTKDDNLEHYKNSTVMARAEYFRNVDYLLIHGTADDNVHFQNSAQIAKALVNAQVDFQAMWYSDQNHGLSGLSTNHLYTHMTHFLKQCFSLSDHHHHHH
Procedure: Fluorescence polarization measurements were performed in 384-well plates (non-binding, ps, f-bottom, black, high volume, 30 μL final volume). A stock solution of human FAP (4 μM) was serially diluted with buffer (50 mM Tris, 100 mM NaCl, 1 mM EDTA, pH=7.4), while the final concentration of the binders was kept constant at 10 nM. The measurements were carried out after incubating for 30 min at 37° C. in the dark by fluorescent polarization (FIG. 4).
Fluorescence polarization experiments were performed in 384-well plates (non-binding, ps, f-bottom, black, high volume, 30 μL final volume). Stock solutions of human FAP (4 μM) and murine FAP (5 μM) were serially diluted with buffer (50 mM Tris, 100 mM NaCl, 1 mM EDTA, pH=7.4), while the final concentration of the binders was kept constant at 10 nM. The fluorescence anisotropy was measured on a TECAN microtiter plate reader. Experiments were performed in triplicate and the mean anisotropy values fitted using Prism 7.

[1] = system: SK-RC-52.hFAP renal cell carcinoma xenografts; assay: Ex vivo targeting experiment, SK-RC-52.hFAP xenografts; type: in vivo, BALB/C nu/nu mice; conditions: 40 nmol intravenous, ex vivo organ images 1 h
Procedure: SK-RC-52.hFAP cells were grown to 80% confluence and detached with Trypsin-EDTA 0.05%. Cells were re-suspended in HBSS medium to a final concentration of 5×10^7 cells/mL.
Mice bearing subcutaneous SK-RC-52.hFAP tumour was injected intravenously with conjugate 15 (40 nmol in sterile PBS, pH 7.4). Animals were sacrificed by CO2 asphyxiation 1h after the intravenous injection and the organs and the tumour were excised, snap-frozen in OCT medium and stored at −80° C. Cryostat sections ([…]) were cut and nuclei were stained with Fluorescence Mounting Medium (Dako Omnis, Agilent). Images were obtained using an Axioskop2 mot plus microscope (Zeiss) and analyzed by ImageJ 1.53 software.

## N#C[C@@H]1CC(F)(F)CN1C(=O)CNC(=O)c1ccnc2c(NC(=O)CCC(=O)N[C@@H](CC(=O)O)C(=O)N[C@@H](CCCCN)C(=O)N[C@@H](CC(=O)O)C(=O)N[C@@H](CSC3CC(=O)N(c4ccc5c(c4)C(=O)OC54c5ccc(O)cc5Oc5cc(O)ccc54)C3=O)C(=O)O)cccc12 (stereo partly drawn) [Conjugate 15, (2R,5S,8S,11S)-8-(4-aminobutyl)-5,11-bis(carboxymethyl)-16-((4-((2-((S)-2-cyano-4,4-difluoropyrrolidin-1-yl)-2-oxoethyl)carbamoyl)quinolin-8-yl)amino)-2-(((1-(3′,6′-dihydroxy-3-oxo-3H-spiro[isobenzofuran-1,9′-xanthen]-5-yl)-2,5-dioxopyrrolidin-3-yl)thio)methyl)-4,7,10,13,16-pentaoxo-3,6,9,12-tetraazahexadecanoic acid] ({X1-Suc}-DKDC(Fluorescein(5-Mal))-OH)
HT-1080 Wild type
  accumulation on HT-1080 Wild type cells: no accumulation on the cell membrane and in the cytosol
SK-RC-52.hFAP
  accumulation on SK-RC-52.hFAP cells: accumulation of conjugate 15 on the cell membrane
SK-RC-52 Wild type
  accumulation on SK-RC-52 Wild type cells: no accumulation on the cell membrane
hFAP
  Kd: 0.68 nM
[1]
  targeting performance in SK-RC-52.hFAP xenografts: rapidly and homogeneously localizes at the tumour site in vivo 1 hour after the intravenous injection, with a high tumour-to-organs selectivity
